Patent publication US20110263423A1, “Plant Health Composition” (BASF SE, priority 2008, published 2011)

Tested on: Maize (Pioneer 34-N-45)
Assay: Maize field trial, mixture with epoxiconazol, Colby synergism (Example 6)
Assay type: in vivo
Conditions: 50 g a.i./ha of each compound
Description: Maize was grown in 2008 in a field trial at the BASF experimental station in Dinuba, 10181 Avenue 416, Calif., U.S.A. The variety Pioneer 34-N-45 was planted at a seeding rate of 35.000 plants/ha. The trial was setup as a randomized bloc design with 5 replications, each. Plot size was 43 m^2.
The maize plants were either untreted, treated with epoxiconazol (A3), with compound Ia, and with a mixture comprising compound Ia and epoxiconazol. Epoxiconazol was applied as the commercial formulation OPUS™ (125 g a.i./L, SC formulation) at a dose rate of 0.4 L/ha (50 g a.i./ha). Compound Ia was used as an EC formulation (62.5 g a.i./L) with a dose rate of 0.8 L per hectar (50 g a.i./ha). Epoxiconazol was applied together with compound Ia (as a mixture) using a co-formulation of both compounds (EC formulation, 62.5 g a.i./L each) with a product rate of 0.8 L/ha. The formulation was applied in a total spray volume of 300 L/ha. Compound Ia was sprayed at growth stage 51/55 (BBCH) with a tractor mounted spray boom with VS11003 spray nozzles at 3 bar spray pressure.
No disease symptoms were visible at the application time and no symptoms were detected at later stages.
At maturity the grain was harvested and the grain yield per plot, as an indicator of plant yield, was determined (kg/plot). Finally, the grain yield per hectare was calculated (dt/ha).
The efficacy was calculated as % increase of the grain yield (dt/ha) by each treatment compared to the untreated control.
The expected efficacies of the combinations of the active compounds were estimated using Colby's formula (Colby, S. R., Calculating synergistic and antagonistic responses of herbicide combinations, Weeds, 15, pp. 20-22, 1967) and compared with the observed efficacies.
E=x+y−x·y/100 Colby's formula: • E expected efficacy, expressed in % of the untreated control, when using the mixture of the active compounds A and B at the concentrations a and b • x efficacy, expressed in % of the untreated control, when using the active ingredient A at the concentration a • y efficacy, expressed in % of the untreated control, when using the active ingredient B at the concentration b

Compound: Fc1ccc([C@]2(Cn3cncn3)O[C@H]2c2ccccc2Cl)cc1 (racemic) [Epoxiconazol (A3), epoxiconazole, reference compound]
- Observed efficacy (% increase of grain yield vs untreated control): 0.9%
- Grain yield (BBCH 51/55): 155.8 dt/ha
